Experimental data taken from US7420060B2, “Benzopyran derivatives substituted with a thioxobenzoxazole derivative, pharmaceutically acceptable salts thereof, their preparations and pharmaceutical compositions containing them” (Schaeffler KG, priority 2003, dated 2008).

Assays:
[1] = system: ischemic myocardial injury models prepared from white rats; experiment: Antiischemic activity in the anesthetized rat ischemic myocardial injury model (coronary occlusion 45 min / reperfusion 90 min); format: in vivo; conditions: 0.3 mg/kg, intravenous (femoral vein), 30 min before occlusion
Experimental: 75 mg/kg of sodium pentobarbital was injected in abdominal cavity of white male rats (350-450 g, Laboratory Animal Division, Korea Research Institute of Chemical Technology) to anesthetize them. After performing tracheotomy, artificial respiration was induced by 10 ml/kg of stroke volume and 60/min. of heart rate. Cannula was inserted in each of vena fermoralis and aorta fermoralis, through which medicines were administered and blood pressure was measured. In the meantime, since body temperature in a ischemic myocardial injury model was very important factor, directly influencing a result, the temperature of a rat was always kept at 37° C. by using a probe for measuring body temperature inserted in rectum and homeothermic blanket control unit. Mean arterial blood pressure and heart rate (HR) of the rat were measured all through the experiments. Statham P23XL pressure transducer (Grass Ins., MA., USA) was used for measuring blood pressure and ECG/RATE Coupler (Hugo Sachs Electronic, Germany) was used for measuring HR. In addition, all the changes were recorded successively by graphtec linearcorder chart recorder (Graphtec Linearcorder WR 3310, Hugo Sachs Electronic).
According to the method of Selye H, left coronary aorta was occluded as follows. Left thoracotomy was induced. That is, the chest of a rat was a little opened. The right chest of the anesthetized rat was pressurized by the middle finger of left hand, so that the heart was pushed out. The heart was fixed gently by the thumb and the index finger of the left hand. A stitch was carefully put on a part including left anterior descending coronary artery by a suture needle with operating thread (5-0 silk ligature), and the heart was quickly positioned again in thoracic cavity. Then, both ends of operating thread were exposed outside. Both ends of operating thread were passed through PE tube (PE100, 2.5 cm) and left for 20 minutes for stabilization. A vehicle or a medicine was administered through the cannula inserted in femoral vein, which was left for 30 minutes in order for the medicine to work thoroughly. BMS-180448 was used for a control group and the dosage of each test medicine and a control medicine was 0.3 mg/kg each. […]
The coronary artery was reoccluded according to the above method and 2 ml of 1% Evans blue solution was administered by intravenous injection. […] The surface of each slice was inputted in a computer by using Hi-scope, a compact micro vision system, and Image pro plus program, from which both normal blood flow tissue area stained by blue and non-stained area on each slice were measured. The ratio of non-stained area to the gross area of each slice was calculated, by which the weight of each slice was multiplied to calculate AAR (area at risk) of each slice. […]

[2] = system: ischemic heart isolated from white rat; experiment: Cardioprotective effect on isolated ischemic rat heart (Langendorff, 30 min global ischemia / 30 min reperfusion); conditions: 10 μM; for LDH (concentration of lactate dehydogenase): after 30 min reperfusion; for EDP (left ventricular end diastolic pressure): after reperfusion, baseline set at 5 mmHg; for LVDP × HR (left ventricular developed pressure × heart rate): reperfusion DP as % of pre-treatment DP, 30 min after reperfusion
Experimental: 100 mg/kg of sodium pentobarbital was injected in abdominal cavity of white male rats (300˜450 g, obtained form the experimental animal team of the Korea Research Institute of Chemical Technology) to anesthetize them. Then, an intravenous injection of 1000 U/kg of heparin was performed before taking out heart. Particularly, cannula(PE 240) was inserted in the trachea, and artificial respiration was tried upon the rat by using a rodent ventilator. Under that condition, aortic cannula was inserted in the aorta and heart was taken out under retrograde perfusion. The extracted heart was hung on Langendorff apparatus quickly and unnecessary tissues on heart were removed. Perfusion was induced under static pressure (85 mmHg) with 37° C. modified Krebs-Henseleit bicarbonate buffer (composition <mM/L>: 116 NaCl, 4.7 KCl, 1.1 MgSO4, 1.17 KH2PO4, 24.9 NaHCO3, 2.52 CaCl2, 8.32 Glucose, 2.0 Pyruvate) saturated with 95% O2/5% CO2. A metal cannula, to which a latex balloon filled with an ethanol-distilled water mixture (1:1 vol/vol) was linked, was inserted in left ventricle through pulmonary vein. Then, left ventricular pressure transmitted through the balloon was transduced by using pressure transducer, and amplified by using Plugsys bridge amplifier isovolumetrically. Then, the pressure was recorded in a recorder (Linearcorder mark 8 WR 3500). Thereafter, heart was stabilized for 15 minutes. Then, left ventricular end diastolic pressure (LVEDP) was given by 5 mmHg and such volume of the balloon was kept all through the experiments.
Baseline cardiac contractile function, heart rate (HR), and coronary flow (CF) were measured. Cardiac contractile function was calculated by […], yielding LVDP (left ventricular developed pressure). Double product RPP (rate-pressure product)(DP), another important parameter for indirectly assessing cardiac performance in Langendorff heart, whose cardiac output could not be measured ordinarily, was calculated by multiplying HR by LVDP. Throughout the experiment, total coronary blood flow was measured by the use of coronary flow probe (diameter: 1.0 mm) installed in aortic cannula with electromagnetic flowmeter. Temperature of heart was steadily maintained by immersing the heart at 37° C. in physiological saline solution to which 95% O2/5% CO2 was constantly supplied. After stabilization for 15 min, the hearts were pre-treated for 10 min with vehicle (0.04% DMSO) only or a compound of the present invention or the control material in the vehicle. Thereafter, cardiac contractile function, HR and CF were repeatedly measured. Global ischemia was induced by completely shutting off the perfusate for 30 min. Severity of ischemia was determined as the time to contracture (TTC, min) during global ischemia in which the first 5 mmHg increase in EDP was observed. Then, the hearts were reperfused and, 30 min later, contractile functions (LVDP, HR and CF) were repeatedly measured. After reperfusion was accomplished for 30 min, LDH (lactate dehydrogenase) was measured with a kit as a sensitive index for loss of cell viability.

[3] = during 30 min global ischemia, first 5 mmHg increase in EDP

| Compound | IZ/AAR(%) myocardial infarction size to area at risk [1] [%] | LDH (concentration of lactate dehydogenase) [2] [unit/g] | EDP (left ventricular end diastolic pressure) [2] [mmHg] | TTC (time to induce contraction / time to contracture) [2, 3] [min] | LVDP × HR (left ventricular developed pressure × heart rate) [2] [%] | TTC (time to induce contraction / time to contracture) [2] [min] |
| --- | --- | --- | --- | --- | --- | --- |
| CC1(C)Oc2ccc(C#N)cc2[C@@H](NC(=NC#N)Nc2ccc(Cl)cc2)[C@@H]1O [BMS-180448, reference compound] | 39.1 | 17.2 | 16.5 | 27.8 | 67.6 | – |
| COC(OC)[C@]1(C)Oc2ccc([N+](=O)[O-])cc2[C@H](n2c(=S)oc3ccccc32)[C@H]1O [Example 1, (2R,3R,4S)-6-nitro-3,4-dihydro-3-hydroxy-2-dimethoxymethyl-2-methyl-4-(2-thioxobenzoxazol-3-yl)-2H-1-benzopyran] | 39.6 | 4.6 | 19.8 | 25.3 | 53.8 | – |
| COC(OC)[C@]1(C)Oc2ccc([N+](=O)[O-])cc2[C@@H](n2c(=S)oc3ccccc32)[C@@H]1O [Example 2, (2R,3S,4R)-6-nitro-3,4-dihydro-3-hydroxy-2-dimethoxymethyl-2-methyl-4-(2-thioxobenzoxazol-3-yl)-2H-1-benzopyran] | – | 17.9 | 29.3 | 24.4 | 57.6 | – |
| COC(OC)[C@@]1(C)Oc2ccc([N+](=O)[O-])cc2[C@H](n2c(=S)oc3ccccc32)[C@H]1O [Example 3, (2S,3R,4S)-6-nitro-3,4-dihydro-3-hydroxy-2-dimethoxymethyl-2-methyl-4-(2-thioxobenzoxazol-3-yl)-2H-1-benzopyran] | – | 12.6 | 15.3 | 26.6 | 66.8 | – |
| COC(OC)[C@]1(C)Oc2ccc([N+](=O)[O-])cc2[C@H](n2c(=S)oc3cc(C)ccc32)[C@H]1O [Example 5, (2R,3R,4S)-6-nitro-3,4-dihydro-3-hydroxy-2-dimethoxymethyl-2-methyl-4-(6-methyl-2-thioxobenzoxazol-3-yl)-2H-1-benzopyran] | – | 20.2 | 21.0 | 29.0 | 47.4 | – |
| COC(OC)[C@]1(C)Oc2ccc([N+](=O)[O-])cc2[C@H](n2c(=S)oc3cccc(C)c32)[C@H]1O [Example 6, (2R,3R,4S)-6-nitro-3,4-dihydro-3-hydroxy-2-dimethoxymethyl-2-methyl-4-(4-methyl-2-thioxobenzoxazol-3-yl)-2H-1-benzopyran] | 42.5 | 9.6 | 6.3 | 26.7 | 74.3 | – |
| COC(OC)[C@]1(C)Oc2ccc([N+](=O)[O-])cc2[C@H](n2c(=S)oc3ccc(Cl)cc32)[C@H]1O [Example 7, (2R,3R,4S)-6-nitro-3,4-dihydro-3-hydroxy-2-dimethoxymethyl-2-methyl-4-(5-chloro-2-thioxobenzoxazol-3-yl)-2H-1-benzopyran] | – | 21.1 | 23.3 | 25.6 | 59.4 | – |
| COC(OC)[C@]1(C)Oc2ccc([N+](=O)[O-])cc2[C@H](n2c(=S)oc3cc([N+](=O)[O-])ccc32)[C@H]1O [Example 9, (2R,3R,4S)-6-nitro-3,4-dihydro-3-hydroxy-2-dimethoxymethyl-2-methyl-4-(6-nitro-2-thioxobenzoxazol-3-yl)-2H-1-benzopyran] | – | 30.1 | 27.0 | – | 61.1 | 23.5 |
| COC(OC)[C@]1(C)Oc2ccc([N+](=O)[O-])cc2[C@H](n2c(=S)oc3ccc(C(F)(F)F)cc32)[C@H]1O [Example 16, (2R,3R,4S)-6-nitro-3,4-dihydro-3-hydroxy-2-dimethoxymethyl-2-methyl-4-(5-trifluoromethyl-2-thioxobenzoxazol-3-yl)-2H-1-benzopyran] | – | – | 13.3 | 26.5 | 79.3 | – |
| COC(OC)[C@]1(C)Oc2ccc(N)cc2[C@@H](n2c(=S)oc3ccccc32)[C@@H]1O [Example 20, (2R,3S,4R)-6-amino-3,4-dihydro-3-hydroxy-2-dimethoxymethyl-2-methyl-4-(2-thioxobenzoxazol-3-yl)-2H-1-benzopyran] | – | 3.9 | 43.3 | 21.3 | 42.0 | – |
| COC(OC)[C@]1(C)Oc2ccc(NC(=O)C(F)(F)F)cc2[C@H](n2c(=S)oc3ccccc32)[C@H]1O [Example 36, (2R,3R,4S)-6-trifluoroacetylamino-3,4-dihydro-3-hydroxy-2-dimethoxymethyl-2-methyl-4-(2-thioxobenzoxazol-3-yl)-2H-1-benzopyran] | – | – | 27.3 | 24.9 | 48.4 | – |
